Test results from patent US9802902B2, “Antifungal compound” (priority 2012, dated 2017).

Columns and labels:
[1] = system: C. albicans biofilms supported on contact lenses; assay: Biofilm susceptibility (in vitro keratitis model treatment); format: cell-based, Candida albicans
Experimental: The contact lenses were washed with PBS and immersed in YM broth overnight before they were punched into smaller pieces of 2 mm in diameter. To grow C. albicans biofilms, the lenses were placed in 6-well tissue culture plates with 4 mL of yeast suspension (10^7 CFU/mL) and incubated for 3 hours at 22° C. The contact lenses were gently washed with PBS to remove non-adherent yeast cells and immersed in YM broth for 48 hours at 22° C. with shaking at 100 rpm. Biofilms were quantified using direct plate counting. The yeast cells on contact lens were detached and dispersed in PBS by ultrasonication for 3 minutes. After making 10-fold dilutions, 20-μL sampling aliquots were plated on solid Lysogeny broth (LB) plate and incubated at 22° C. for 48 hours before the colony number was counted for determination of surviving CFU. Data from triplicate plate counts were averaged.
The C. albicans biofilms supported on contact lenses were transferred to fungicidal agent-containing PBS, and incubated at 22° C. for 24 hours. The biofilms were ultrasonicated for 3 minutes, and then serially diluted in PBS. The viable yeast cells were enumerated as described above.

C. albicans keratitis = assay: Contact lens-associated C. albicans keratitis model in mouse; format: in vivo; conditions: 1000 μg/mL topical eye drops; for corneal counts of C. albicans: 6 eyeballs homogenized; for clinical score (slit lamp, grade 0-4): after treatment, ± standard deviation
Excerpt: 8-week-old adult C57BL/6 mice (18-22 g) were used for animal studies. All mice eyes were examined for absence of ocular pathology before experiments were initiated. The experimental protocol was approved by the Institutional Animal Care and Use Committee of Biological Resource Centre, Agency for Science, Technology and Research (A*STAR), Singapore.
The black mouse keratitis model was established by employing contact lens biofilm infection, which is described as follows. The mice were anesthetized by ketamine (150 mg/kg) and xylazine ([…]) via intraperitoneal injection (I.P.). Additional topical anesthetic in the form of 0.5% tetracaine hydrochloride eye drops (Bausch & Lomb, Tampa, Fla.) was also administered.
A total of 45 mice were used in this study. A 1-mm filter paper disc moistened with 99% 1-heptanol (Sigma-Aldrich, Lausanne, Switzerland) was placed on the center of the cornea for 40 seconds. The corneal epithelium was traumatically wiped out and the eyes were rinsed with PBS to remove any remaining traces of 1-heptanol. A 2 mm-diameter punch from the contact lense with C. albicans biofilm was then placed on the denuded cornea surface. The contact lenses were kept inside the eyes by closing the eye lids with silk sutures. The C. albicans cells were grown on the eyeball 18 hours after inoculation; eye ulcer with a leathery, tough, raised surface was observed. A disease grading from 0 (no disease) to 4 (severe disease) was established for evaluating treatment efficacy (see Table 1 below). The mice were immune suppressed by subcutaneous injection of cyclophosphamide (Sigma-Aldrich, […]).
To investigate the potential application of these two compounds in fungi keratitis treatment, C. albicans keratitis model was established using mouse. The contact lenses with C. albicans biofilm were kept inside the mice eyes by closing the lids with silk sutures. 18 hours after inoculation, the C. albicans cells were grown on the eyeball. Eye ulcer with a leathery, tough, raised surface was observed. The animals were randomly treated with 5 topical eye drop solutions: saline solution (control), 1000 μg/mL of PIM-45, 1000 μg/mL of IBN-1, 1000 μg/mL of amphotericin B, and 1000 μg/mL of fluconazole. Eye drops (20 μl each) were administered to the mice every 5 minutes during the first hour and every 30 minutes during the next 7 hours. After a pause of 16 hours, eye drops were administered at hourly intervals for another 8 hours. All mice were sacrificed 16 hours after the administration of the last eye drop. The treated eyeballs were collected immediately; three eyeballs from each group were collected for histology, and the remaining 6 eyeballs were homogenized for quantitative fungal recovery study. The fixed eyeballs were embedded in paraffin, sectioned and stained with Grocott's methenamine silver by standard protocol.

| SMILES | effective concentration in killing biofilm-grown yeast cells ([1]; C. albicans biofilm on contact lens, PBS, 22° C., 24 hours) [ppm] | hyphal invasion into cornea (histology) (C. albicans keratitis) | corneal counts of C. albicans (C. albicans keratitis) [lg CFU/eye] | clinical score (slit lamp, grade 0-4) (C. albicans keratitis) | destruction of C. albicans biofilm ([1]; at 250 ppm) |
| --- | --- | --- | --- | --- | --- |
| C[C@@H]1[C@H](O)[C@@H](C)/C=C/C=C/C=C/C=C/C=C/C=C/C=C/[C@H](O[C@@H]2O[C@H](C)[C@@H](O)[C@H](N)[C@@H]2O)C[C@@H]2O[C@](O)(C[C@@H](O)C[C@@H](O)[C@H](O)CC[C@@H](O)C[C@@H](O)CC(=O)O[C@H]1C)C[C@H](O)[C@H]2C(=O)O [amphotericin B] | 250 | reduced the maximal depth of hyphal invasion into cornea | 3.3 | 2.2±0.4 | – |
| OC(Cn1cncn1)(Cn1cncn1)c1ccc(F)cc1F [fluconazole] | – | fungal hyphae extended through the epithelium and into the anterior stroma | 5.1 | 3.5±0.5 | only slightly destroyed |
